From US20090191160A1, “Methods of producing pluripotent stem-like cells” (University of Dayton, priority 2007, published 2009)

Legend:
Format in all cases: cell-based, mouse
skin fibroblast cells = assay: Conversion (dedifferentiation) of skin fibroblast cells into stem cell-like cells, phase contrast morphology; details: for conversion of skin fibroblast cells into stem cell-like cells: Thapsigargin 1 μg/ml added to SR-containing medium; for reprogramming / dedifferentiation of skin fibroblast cells into stem cell-like cells: basic medium with SR or lipid-rich BSA versus basic medium only
Description: (§1) Mouse embryonic skin fibroblast cells (MEFs) derived form 13.5 day mouse embryos and adult mouse primary dermal fibroblasts derived from adult mouse skin were cultured in DMEM Dulbecco's modified Eagle's medium (DMEM) with 10% Fetal Bovine Serum (FBS) at 37° C., 10% CO2. After the cells were grown to confluence, the cells were trypsinized, then suspended in SR-containing medium or basic medium without serum. About 10^5 mouse skin fibroblast cells were transferred to 3 ml SR-containing medium in a 6 well plate. SR-containing medium contained basic medium that included DMEM/F12 (Invitrogen 11330-032), 1× non-Essential Amino Acids (Invitrogen 11140-050), 1× L-Glutamine (Invitrogen 25030-018), […] β-mercaptoethanol and 20% Knockout Serum Replacer (Invitrogen 10828-028). 4 ng/mL bFGF (R&D System Cat# 233-FB) and Leukemia inhibitory factor Lif (ESGRO®, Chemicon ESG1107) were added to the SR-containing medium to prevent stem-like cells from differentiating.
Conversion of fibroblast cells to induced pluripotent stem-like cells can be achieved by culturing a mouse embryonic skin fibroblast (MEF), mouse adult skin fibroblast (MAF) or human skin fibroblast cell in DMEM media having 10% fetal bovine serum (FBS) until the cells are confluent. Serum-replacement (SR)-containing media and 0.25% trypsin/EDTA are then warmed (e.g., at 37° C. in a water bath). Media is aspirated from the fibroblast cell culture plate, cells are washed with 1×PBS, and trypsinized via addition of 2 mls of trypsin/EDTA for one minute, followed by removal of all the trypsin solution. 2 mls of the SR human ES medium or DMEM/F12 medium is then added to the cells (without FBS), and cells are resuspended in the medium using a 5 ml pipet, pipeting up and down until no large clumps remain. About 10^5 cells/well are then added to a six well plate, with each well containing 3 mls of SR human ES medium. The cells are then mixed in this media. Cells are then placed in a warm incubator (e.g., 37° C. at 5% or 10% CO2). The cells are passaged every 3 days for a total of five or more passages. Ingredients of SR human stem cell culture medium are: 400 ml DMEM/F12 (Invitrogen 11330-032), 5 ml non-Essential Amino Acids (Invitrogen 11140-050), 2.5 ml L-Glutamine (Invitrogen 25030-018), […] β-mercaptoethanol (Sigma 7522, add 3.5 ul) and 100 ml Knockout Serum Replacer (Invitrogen 10828-028). Optionally, 4 ng/mL bFGF (R&D System Cat# 233-FB) is present. To make FGF stock, 1 ml of DMEM/F12 was added to dissolve 1 vial of 10 ug of FGF, with this solution aliquotted into five vials, then stored at −20° C. bFGF needed to be added freshly to the medium every time the method was performed. Lif was also needed for mouse cell cultures. Formulation of the SR component of serum-free medium also contained AgNO3 and other trace elements. For AgNO3-containing media, 1000× AgNO3 was added to the medium to a final concentration of 0.0001 mg/L.
To investigate the possibility that serum replacement (SR)-containing medium can promote the reprogramming and dedifferentiation of skin fibroblast cells into pluripotent stem-like cells, mouse skin fibroblast cells were cultured in fibroblast growth medium, and were then transferred by trypsinization to plates holding SR-containing medium. […] Twenty-four hours post-transfer, a majority of cells became small, round, bright-edged granulated cells (FIG. 1a). […]

[1] = tested on: fibroblast growth factor receptor 3 (FGFR3); assay: Western blotting for FGF Receptor-3 protein in fibroblast cells; details: Western blot; for FGFR3 expression: Thapsigargin 1 ug/ml, 24 hour timepoint
Source text: […] […] All Images were acquired in the inverted microscope (Nikon TS100) at 10× magnification using the MetaMorph Imaging Software, and the scale bar is 100 μm.
(§2) (Up-regulation of FGFR3 had been previously shown to play an important role in the reprogramming of primordial germ cells into stem-like cells (Skottman et al. Stem Cell 24:151-167).)
In view of the observed involvement of the FGF signaling pathway, it was then examined whether Ca^2+ might be an important secondary messenger responsible for regulating the reprogramming of fibroblast cells induced by SR containing medium activation of the FGF signaling pathway. Thapsigargin, a tight-binding inhibitor for sarco/endoplasmic reticulum Ca^2+ ATPase, was added to the SR-containing medium at a concentration of 1 μg/ml (Durcova-Hills et al. Stem Cell 24:1441).

embryonic bodies = assay: In vitro differentiation of embryoid bodies from SR-iPS cells; details: 2 μM trans-retinoic acid, 10 days, gelatin coated plates
Description: One of the most important characteristics of stem-like cells is pluripotency. To investigate the SR-iPS stem cells have the multilineage differention potential as embryonic stem cells in vitro, different passage of iPS cells were used to form embryo bodis (EBs) one week's culture without passing in SR medium without Lif. The EBs continues to differentiate on gelatin coated plates and induced by 2 μM trans-retinoic acid for an additional 10 days. Expression of endoderm-, mesoderm-, and ectoderm-specific markers was examined by using antibodies raised against α-fetoprotein, smooth muscle actin, and β-tubulin III, respectively (21). For more specific cell lineage such as cardiomyocyte and smooth muscle cells differentiation, EBs were transferred to collagen-coated plate which contained α-MEM (cardiac differentiation medium) supplemented with 10 ng/ml platelet-derived growth factor-BB (PDGF-BB). Vascular endothelial growth medium supplemented with 50 ng/ml vascular endothelial growth factor (VEGF) was used for the smooth muscle growth differentiation. Two weeks after culturing the EBs in these medium, the cell morphology were examined by Immunofluorescent Staining with Troponin C and smooth muscle actin antibodies.

ES-like cells = assay: Maintenance of ES-like cells in SR-containing medium with growth factors; details: bFGF 4 ng/ml and Lif added together to SR-containing medium
Description: as §1
To investigate the possibility that serum replacement (SR)-containing medium can promote the reprogramming and dedifferentiation of skin fibroblast cells into pluripotent stem-like cells, mouse skin fibroblast cells were cultured in fibroblast growth medium, and were then transferred by trypsinization to plates holding SR-containing medium. […]

Ca^2+ influx = assay: Ca2+ signalling in fibroblast cells after transfer into SR-containing medium; details: after transfer of fibroblast cells
Source text: as §2

Oct4 promoter = assay: Methylation status of the Oct4 promoter in fibroblast cells; details: before and after contact with SR medium

With `C/C=C(/C)C(=O)O[C@H]1C(C)=C2[C@H]([C@@H]1OC(=O)CCCCCCC)[C@@](C)(OC(C)=O)C[C@H](OC(=O)CCC)[C@@]1(O)[C@H]2OC(=O)[C@@]1(C)O` [Thapsigargin, reference compound] the “conversion of skin fibroblast cells into stem cell-like cells” value (skin fibroblast cells) was “prevented conversion of the fibroblast cells into stem-like cells”, the “conversion of skin fibroblast cells into stem cell-like cells” value (skin fibroblast cells; listed as thapsigargin) was “prevented” and the FGFR3 expression [1] was “down-regulated FGF receptor 3 (FGFR3) expression”. For the same compound, the FGFR3 expression ([1]; listed as thapsigargin) was “prevented”.

In the case of `CCCCC/C=C\C/C=C\C/C=C\C/C=C\CCCC(=O)O` [acarchodonic acid], the “reprogramming / dedifferentiation of skin fibroblast cells into stem cell-like cells” value (“reprogramming / dedifferentiation” for short) (skin fibroblast cells) was “required to create stem-like cells”.

For `CC1=C(/C=C/C(C)=C/C=C/C(C)=C/C(=O)O)C(C)(C)CCC1` [retinonic acid, trans-retinoic acid], the “differentiation into three germ layers (AFP, SM-Actin, β-tubulin III staining)” value (embryonic bodies) was “differentiation of the embryonic bodies into three germ layers”.

“bFGF: basic fibroblast growth factor (R&D System Cat# 233-FB)” was tested, and the “division and differentiation of ES-like cells” value (ES-like cells) was “promote division of the ES-like cells, while preventing differentiation of these cells”.

With “lipid-rich BSA: AlbuMAX I is the high-lipid BSA (Invitrogen)” the “Ca^2+ influx / signalling” value (Ca^2+ influx) was “induced”, the “reprogramming / dedifferentiation” value (skin fibroblast cells) was “promoted the dedifferentiation of skin fibroblast cells into stem cell-like cells” and the “reprogramming / dedifferentiation” value (skin fibroblast cells; listed as high-lipid BSA) was “required to create stem-like cells”. For the same compound, the “FGFR3 expression after transfer into medium” value ([1]; 2, 4, 8, 12 hours after transfer) was “induced” and the “methylation status of the Oct4 promoter” value (Oct4 promoter) was “induced”.
